± gives the expanded uncertainty stated by the source.
Settings: Liquid, Transpiration method

## COc1cccs1 [2-methoxythiophene]
278.1 K
  vapor or sublimation pressure: 0.1302 ± 0.0068 kPa
281 K
  vapor or sublimation pressure: 0.1585 ± 0.0082 kPa
283 K
  vapor or sublimation pressure: 0.1804 ± 0.0095 kPa
285.9 K
  vapor or sublimation pressure: 0.2284 ± 0.012 kPa
287.8 K
  vapor or sublimation pressure: 0.2708 ± 0.014 kPa
290.7 K
  vapor or sublimation pressure: 0.3244 ± 0.017 kPa
292.7 K
  vapor or sublimation pressure: 0.3939 ± 0.02 kPa
295.7 K
  vapor or sublimation pressure: 0.4587 ± 0.024 kPa
297.6 K
  vapor or sublimation pressure: 0.5406 ± 0.028 kPa
300.6 K
  vapor or sublimation pressure: 0.6383 ± 0.033 kPa
302.6 K
  vapor or sublimation pressure: 0.6976 ± 0.036 kPa
305.6 K
  vapor or sublimation pressure: 0.8682 ± 0.045 kPa
307.6 K
  vapor or sublimation pressure: 0.9894 ± 0.051 kPa
310.6 K
  vapor or sublimation pressure: 1.147 ± 0.059 kPa
312.6 K
  vapor or sublimation pressure: 1.336 ± 0.069 kPa
312.7 K
  vapor or sublimation pressure: 1.299 ± 0.067 kPa
313.6 K
  vapor or sublimation pressure: 1.366 ± 0.071 kPa
315.6 K
  vapor or sublimation pressure: 1.559 ± 0.08 kPa
318.6 K
  vapor or sublimation pressure: 1.83 ± 0.094 kPa
321.7 K
  vapor or sublimation pressure: 2.196 ± 0.11 kPa
323.7 K
  vapor or sublimation pressure: 2.471 ± 0.13 kPa

## COc1ccsc1 [3-methoxythiophene]
278.1 K
  vapor or sublimation pressure: 0.089 ± 0.0047 kPa
281 K
  vapor or sublimation pressure: 0.1105 ± 0.0058 kPa
283.9 K
  vapor or sublimation pressure: 0.1366 ± 0.0071 kPa
286.8 K
  vapor or sublimation pressure: 0.1662 ± 0.0087 kPa
289.7 K
  vapor or sublimation pressure: 0.2094 ± 0.011 kPa
292.6 K
  vapor or sublimation pressure: 0.2646 ± 0.014 kPa
295.7 K
  vapor or sublimation pressure: 0.32 ± 0.016 kPa
297.6 K
  vapor or sublimation pressure: 0.3561 ± 0.018 kPa
300.6 K
  vapor or sublimation pressure: 0.4274 ± 0.022 kPa
303.6 K
  vapor or sublimation pressure: 0.5203 ± 0.027 kPa
306.6 K
  vapor or sublimation pressure: 0.6282 ± 0.033 kPa
309.6 K
  vapor or sublimation pressure: 0.7649 ± 0.039 kPa
312.6 K
  vapor or sublimation pressure: 0.9169 ± 0.047 kPa
315.7 K
  vapor or sublimation pressure: 1.078 ± 0.055 kPa
318.7 K
  vapor or sublimation pressure: 1.313 ± 0.067 kPa
321.7 K
  vapor or sublimation pressure: 1.536 ± 0.078 kPa
324.7 K
  vapor or sublimation pressure: 1.765 ± 0.089 kPa
